In ChEMBL document CHEMBL1201862, “PubChem BioAssay data set” (2004):
Activity calls are given as the source filed them.

Key:
[1] = target: T1, Voltage-dependent T-type calcium channel subunit alpha-1H (Homo sapiens, UniProt O95180); assay type: functional
[2] = Trypanosoma cruzi growth suppression in host cells – NIH3T3 host cells, beta-gal luminescence, confirmation (AID 2044); assay type: functional, cell-based;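 further: intracellular parasites grown in NIH/3T3 mouse fibroblasts as host cells; luminescent beta-galactosidase reporter signal from transgenic T. cruzi replicating inside host cells; inhibitors lower the luminescence signal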
[3] = target: G-protein coupled receptor 35 (Homo sapiens, UniProt Q9HC97); assay: inhibition of zaprinast-stimulated GPR35 beta-arrestin translocation – imaging, U2OS, beta-arrestin-GFP, zaprinast agonist, primary screen (AID 2058); assay type: functional;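 further: antagonist potency meaning inhibition of agonist-induced arrestin redistribution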
G-protein coupled receptor 35, sequence (Q9HC97 whole entry): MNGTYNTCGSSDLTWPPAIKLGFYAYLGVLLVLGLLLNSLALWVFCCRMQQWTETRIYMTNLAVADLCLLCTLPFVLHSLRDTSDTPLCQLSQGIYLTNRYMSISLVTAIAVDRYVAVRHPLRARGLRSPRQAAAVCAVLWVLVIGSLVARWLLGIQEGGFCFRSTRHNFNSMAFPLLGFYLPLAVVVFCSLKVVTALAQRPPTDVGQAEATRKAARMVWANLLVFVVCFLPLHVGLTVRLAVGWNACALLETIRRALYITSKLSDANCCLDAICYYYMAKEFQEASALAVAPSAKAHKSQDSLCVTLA

[4] = NIH3T3 cell viability loss – ATP luminescence, mouse fibroblasts, counter-screen, dose response (AID 2010); assay type: functional, cell-based;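 further: cells exposed to compound for about 90 hours before reading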
Trypsin = Trypsin (Sus scrofa, UniProt P00761); assay: trypsin protease activity blockade – biochemical, quenched peptide fluorescence, cherry-pick, selectivity assay for Rce1 protease inhibitor project, dose response (AID 488789)
Trypsin, sequence (P00761 whole entry): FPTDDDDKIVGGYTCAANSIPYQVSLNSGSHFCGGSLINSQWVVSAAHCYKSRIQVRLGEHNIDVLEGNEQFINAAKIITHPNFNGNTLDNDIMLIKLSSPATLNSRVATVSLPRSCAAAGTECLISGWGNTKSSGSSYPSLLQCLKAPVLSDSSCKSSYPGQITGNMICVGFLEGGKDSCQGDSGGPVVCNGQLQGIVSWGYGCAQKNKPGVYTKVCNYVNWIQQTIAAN

[5] = target: T2, Voltage-gated N-type calcium channel alpha-1B subunit/Amyloid beta A4 precursor protein-binding family A member 1 (Homo sapiens, UniProt Q00975+Q02410); assay type: protein assay
[6] = target: T2, Voltage-gated N-type calcium channel alpha-1B subunit/Amyloid beta A4 precursor protein-binding family A member 1; assay type: protein assay; remark: listed apart in the source
X-box-binding protein 1 = X-box-binding protein 1 (Homo sapiens, UniProt P17861); assay type: functional, Cricetulus griseus;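 further: confirmatory dose-response counter-screen serving a CHOP assay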
X-box-binding protein 1, sequence (P17861 whole entry): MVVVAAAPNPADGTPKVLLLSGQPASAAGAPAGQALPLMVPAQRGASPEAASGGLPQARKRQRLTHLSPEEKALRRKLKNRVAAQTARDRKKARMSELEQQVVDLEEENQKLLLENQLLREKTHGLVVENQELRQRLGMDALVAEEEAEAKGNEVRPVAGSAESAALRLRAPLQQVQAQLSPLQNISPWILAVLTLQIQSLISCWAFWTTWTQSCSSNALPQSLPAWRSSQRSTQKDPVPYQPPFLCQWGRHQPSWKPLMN

[7] = Luminescence Cell-Based Dose Retest to Confirm Inhibitors of Cancer Stem Cells. [Related pubchem assays (depositor defined):AID2717, AID2721]; assay type: functional; settings: Homo sapiens
[8] = loss of viability in HepG2 cells – cell-based, CellTiter-Glo, cherry-picked, cytotoxicity control for Shn3 inhibitor project, dose response (AID 624134); assay type: functional
[9] = non-specific 3'UTR reporter inhibition in Clone20-Shn3RL – cell-based, Renilla luciferase, cherry-picked, counter-screen for Shn3 inhibitor project, dose response (AID 624133); assay type: functional
[10] = reduction of Shn3 3'UTR-driven luciferase in osteoblasts – cell-based, Clone20 osteoblasts, firefly luciferase, cherry-picked, dose response (AID 624132); assay type: functional;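 further: firefly luciferase luminescence from reporter carrying the Shn3 3'UTR in osteoblasts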
[11] = target: T3, RNA-binding protein pos-1 (Caenorhabditis elegans, UniProt G5EF15); assay: disruptors of C. elegans POS-1 RNA interaction – biochemical, fluorescence polarization, dose response (AID 1964);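 further: purified POS-1 fused to maltose binding protein made in E. coli; potency of compounds blocking POS-1 binding to fluorescent RNA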
T3 sequence (G5EF15 whole entry): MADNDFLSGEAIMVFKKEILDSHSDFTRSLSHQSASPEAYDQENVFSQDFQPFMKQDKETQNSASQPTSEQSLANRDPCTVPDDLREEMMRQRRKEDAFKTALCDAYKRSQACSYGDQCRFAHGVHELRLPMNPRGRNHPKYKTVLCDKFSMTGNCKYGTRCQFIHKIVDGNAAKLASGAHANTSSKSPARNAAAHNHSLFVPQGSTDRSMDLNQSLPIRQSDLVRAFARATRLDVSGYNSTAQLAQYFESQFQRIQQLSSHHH

[12] = target: T1, Voltage-dependent T-type calcium channel subunit alpha-1H; assay: Inhibitors of T-Type Calcium Channels. [Related pubchem assays (depositor defined):AID449739, AID463087, AID489005, AID493041, AID504579, AID504584, AID504619, AID504628]; assay type: functional
[13] = target: T4, Zinc finger protein mex-5 (Caenorhabditis elegans, UniProt Q9XUB2); assay: potency of MEX-5 RNA-binding blockers – biochemical, C. elegans, fluorescence polarization, dose response (AID 1960)
T4 sequence (Q9XUB2 whole entry): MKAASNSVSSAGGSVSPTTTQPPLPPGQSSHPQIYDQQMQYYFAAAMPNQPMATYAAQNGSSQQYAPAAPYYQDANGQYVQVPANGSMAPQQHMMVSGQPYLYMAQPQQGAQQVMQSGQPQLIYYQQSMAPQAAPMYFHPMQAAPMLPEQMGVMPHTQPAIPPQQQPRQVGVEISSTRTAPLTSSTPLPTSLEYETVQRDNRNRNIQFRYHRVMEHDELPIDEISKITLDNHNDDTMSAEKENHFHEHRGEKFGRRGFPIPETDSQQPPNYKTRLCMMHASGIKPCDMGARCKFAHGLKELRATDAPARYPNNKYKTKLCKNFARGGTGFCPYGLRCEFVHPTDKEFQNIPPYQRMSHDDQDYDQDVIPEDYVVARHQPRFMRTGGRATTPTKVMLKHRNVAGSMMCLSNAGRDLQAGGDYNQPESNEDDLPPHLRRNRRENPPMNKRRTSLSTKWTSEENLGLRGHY

[14] = DRD fibroblast viability loss – cell-based, non-viral oncogenic, luminescence, dose response (AID 1934); assay type: functional; settings: Homo sapiens
BJ [15] = assay: cells; assay type: functional, cell-based; settings: Homo sapiens
BJ [16] = assay: BJ-TERT-LT-ST fibroblast viability loss – cell-based, RAS-independent, luminescence, dose response (AID 1935); assay type: functional; settings: Homo sapiens;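 further: BJ fibroblasts immortalized with TERT plus LT and ST oncogenes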
[17] = microbe, parasite or virus in culture; assay type: functional; settings: Mycobacterium tuberculosis
BJ [18] = assay: growth inhibition of engineered Ras-driven BJ cells – cell-based, alamar blue fluorescence, cherrypicked samples, dose response (AID 2631); assay type: functional; settings: Homo sapiens;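 further: confirmatory dose-response assay in RAS-dependent BJ fibroblasts engineered with TERT, LT and ST, with cytotoxicity read by fluorescence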
BJ [19] = assay: BJ-TERT fibroblast viability loss – cell-based, RAS-independent, luminescence, dose response (AID 1933); assay type: functional; settings: Homo sapiens
[20] = target: G-protein coupled receptor 55 (Homo sapiens, UniProt Q9Y2T6); assay: selective activators of receptor GPR55 – imaging, U2OS cells, beta-arrestin-GFP redistribution, primary screen (AID 1961); assay type: functional
G-protein coupled receptor 55, sequence (Q9Y2T6 whole entry): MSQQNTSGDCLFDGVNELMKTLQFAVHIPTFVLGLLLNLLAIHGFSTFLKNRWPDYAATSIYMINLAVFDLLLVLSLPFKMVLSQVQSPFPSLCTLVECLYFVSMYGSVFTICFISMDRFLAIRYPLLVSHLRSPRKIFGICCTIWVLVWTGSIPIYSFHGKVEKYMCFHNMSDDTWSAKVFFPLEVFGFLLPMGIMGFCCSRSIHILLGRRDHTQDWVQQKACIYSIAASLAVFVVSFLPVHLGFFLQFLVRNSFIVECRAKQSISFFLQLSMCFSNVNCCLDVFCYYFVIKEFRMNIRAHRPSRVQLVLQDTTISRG

[21] = target: Alkaline phosphatase, placental type (Homo sapiens, UniProt P05187); assay: human placental alkaline phosphatase inhibition – biochemical, luminescence, confirmation (AID 1512); assay type: functional
Alkaline phosphatase, placental type, sequence (P05187 whole entry): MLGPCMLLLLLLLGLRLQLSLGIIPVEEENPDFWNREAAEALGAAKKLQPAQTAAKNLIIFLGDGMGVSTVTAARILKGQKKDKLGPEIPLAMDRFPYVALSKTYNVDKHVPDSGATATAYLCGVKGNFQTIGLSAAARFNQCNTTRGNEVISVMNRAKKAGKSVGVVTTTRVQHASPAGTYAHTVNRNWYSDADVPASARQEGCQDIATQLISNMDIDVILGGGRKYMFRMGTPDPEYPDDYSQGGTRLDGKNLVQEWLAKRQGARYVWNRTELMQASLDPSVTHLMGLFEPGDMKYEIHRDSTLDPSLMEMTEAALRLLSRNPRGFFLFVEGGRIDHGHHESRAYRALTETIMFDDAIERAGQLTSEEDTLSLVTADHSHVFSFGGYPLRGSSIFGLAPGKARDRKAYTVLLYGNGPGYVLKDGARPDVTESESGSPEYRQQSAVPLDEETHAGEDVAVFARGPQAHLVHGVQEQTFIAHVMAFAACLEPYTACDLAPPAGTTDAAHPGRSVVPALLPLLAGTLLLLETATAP

[22] = target: T5, Alkaline phosphatase, tissue-nonspecific isozyme (Homo sapiens, UniProt P05186); assay: potency against alkaline phosphatase TNAP – biochemical, luminescent, dose response, SAR follow-up (AID 1056)
T5 sequence (P05186 whole entry): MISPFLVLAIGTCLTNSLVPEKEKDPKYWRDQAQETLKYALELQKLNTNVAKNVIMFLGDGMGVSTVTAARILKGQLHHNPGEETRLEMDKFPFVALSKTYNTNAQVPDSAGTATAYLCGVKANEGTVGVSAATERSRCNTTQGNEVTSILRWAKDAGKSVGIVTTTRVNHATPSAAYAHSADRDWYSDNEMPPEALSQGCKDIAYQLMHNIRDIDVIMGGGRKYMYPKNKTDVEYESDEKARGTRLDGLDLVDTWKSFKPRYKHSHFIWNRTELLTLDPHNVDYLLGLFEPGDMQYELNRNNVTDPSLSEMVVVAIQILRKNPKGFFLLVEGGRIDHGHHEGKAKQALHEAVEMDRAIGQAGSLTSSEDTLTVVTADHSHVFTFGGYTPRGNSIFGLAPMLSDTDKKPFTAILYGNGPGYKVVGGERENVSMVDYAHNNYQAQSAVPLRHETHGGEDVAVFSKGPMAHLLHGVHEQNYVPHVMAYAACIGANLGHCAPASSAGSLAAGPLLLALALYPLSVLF

[23] = target: T6, Rac GTPase-activating protein 1 (Homo sapiens, UniProt Q9H0H5); assay: blockers of MgcRacGAP-driven Rac1 GTP hydrolysis – biochemical, ADP Hunter fluorescence, primary and confirmatory, confirmation (AID 624330); assay type: functional
T6 sequence (Q9H0H5 whole entry): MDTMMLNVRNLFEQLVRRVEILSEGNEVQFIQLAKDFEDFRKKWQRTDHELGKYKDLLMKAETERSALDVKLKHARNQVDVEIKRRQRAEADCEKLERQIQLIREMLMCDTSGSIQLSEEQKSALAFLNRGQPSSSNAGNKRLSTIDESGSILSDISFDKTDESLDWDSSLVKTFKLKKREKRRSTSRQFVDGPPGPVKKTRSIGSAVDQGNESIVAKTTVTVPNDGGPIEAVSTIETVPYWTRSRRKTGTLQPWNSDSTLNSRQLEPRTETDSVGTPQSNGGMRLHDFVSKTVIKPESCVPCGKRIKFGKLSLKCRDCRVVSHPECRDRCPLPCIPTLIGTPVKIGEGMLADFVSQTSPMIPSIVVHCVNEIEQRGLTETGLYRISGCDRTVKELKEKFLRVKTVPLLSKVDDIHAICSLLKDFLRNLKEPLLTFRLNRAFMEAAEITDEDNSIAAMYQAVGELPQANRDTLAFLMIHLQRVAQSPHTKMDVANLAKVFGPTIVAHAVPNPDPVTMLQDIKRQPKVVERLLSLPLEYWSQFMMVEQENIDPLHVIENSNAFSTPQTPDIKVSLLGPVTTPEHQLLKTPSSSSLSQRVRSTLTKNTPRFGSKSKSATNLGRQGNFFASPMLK

T1 sequence (O95180 whole entry): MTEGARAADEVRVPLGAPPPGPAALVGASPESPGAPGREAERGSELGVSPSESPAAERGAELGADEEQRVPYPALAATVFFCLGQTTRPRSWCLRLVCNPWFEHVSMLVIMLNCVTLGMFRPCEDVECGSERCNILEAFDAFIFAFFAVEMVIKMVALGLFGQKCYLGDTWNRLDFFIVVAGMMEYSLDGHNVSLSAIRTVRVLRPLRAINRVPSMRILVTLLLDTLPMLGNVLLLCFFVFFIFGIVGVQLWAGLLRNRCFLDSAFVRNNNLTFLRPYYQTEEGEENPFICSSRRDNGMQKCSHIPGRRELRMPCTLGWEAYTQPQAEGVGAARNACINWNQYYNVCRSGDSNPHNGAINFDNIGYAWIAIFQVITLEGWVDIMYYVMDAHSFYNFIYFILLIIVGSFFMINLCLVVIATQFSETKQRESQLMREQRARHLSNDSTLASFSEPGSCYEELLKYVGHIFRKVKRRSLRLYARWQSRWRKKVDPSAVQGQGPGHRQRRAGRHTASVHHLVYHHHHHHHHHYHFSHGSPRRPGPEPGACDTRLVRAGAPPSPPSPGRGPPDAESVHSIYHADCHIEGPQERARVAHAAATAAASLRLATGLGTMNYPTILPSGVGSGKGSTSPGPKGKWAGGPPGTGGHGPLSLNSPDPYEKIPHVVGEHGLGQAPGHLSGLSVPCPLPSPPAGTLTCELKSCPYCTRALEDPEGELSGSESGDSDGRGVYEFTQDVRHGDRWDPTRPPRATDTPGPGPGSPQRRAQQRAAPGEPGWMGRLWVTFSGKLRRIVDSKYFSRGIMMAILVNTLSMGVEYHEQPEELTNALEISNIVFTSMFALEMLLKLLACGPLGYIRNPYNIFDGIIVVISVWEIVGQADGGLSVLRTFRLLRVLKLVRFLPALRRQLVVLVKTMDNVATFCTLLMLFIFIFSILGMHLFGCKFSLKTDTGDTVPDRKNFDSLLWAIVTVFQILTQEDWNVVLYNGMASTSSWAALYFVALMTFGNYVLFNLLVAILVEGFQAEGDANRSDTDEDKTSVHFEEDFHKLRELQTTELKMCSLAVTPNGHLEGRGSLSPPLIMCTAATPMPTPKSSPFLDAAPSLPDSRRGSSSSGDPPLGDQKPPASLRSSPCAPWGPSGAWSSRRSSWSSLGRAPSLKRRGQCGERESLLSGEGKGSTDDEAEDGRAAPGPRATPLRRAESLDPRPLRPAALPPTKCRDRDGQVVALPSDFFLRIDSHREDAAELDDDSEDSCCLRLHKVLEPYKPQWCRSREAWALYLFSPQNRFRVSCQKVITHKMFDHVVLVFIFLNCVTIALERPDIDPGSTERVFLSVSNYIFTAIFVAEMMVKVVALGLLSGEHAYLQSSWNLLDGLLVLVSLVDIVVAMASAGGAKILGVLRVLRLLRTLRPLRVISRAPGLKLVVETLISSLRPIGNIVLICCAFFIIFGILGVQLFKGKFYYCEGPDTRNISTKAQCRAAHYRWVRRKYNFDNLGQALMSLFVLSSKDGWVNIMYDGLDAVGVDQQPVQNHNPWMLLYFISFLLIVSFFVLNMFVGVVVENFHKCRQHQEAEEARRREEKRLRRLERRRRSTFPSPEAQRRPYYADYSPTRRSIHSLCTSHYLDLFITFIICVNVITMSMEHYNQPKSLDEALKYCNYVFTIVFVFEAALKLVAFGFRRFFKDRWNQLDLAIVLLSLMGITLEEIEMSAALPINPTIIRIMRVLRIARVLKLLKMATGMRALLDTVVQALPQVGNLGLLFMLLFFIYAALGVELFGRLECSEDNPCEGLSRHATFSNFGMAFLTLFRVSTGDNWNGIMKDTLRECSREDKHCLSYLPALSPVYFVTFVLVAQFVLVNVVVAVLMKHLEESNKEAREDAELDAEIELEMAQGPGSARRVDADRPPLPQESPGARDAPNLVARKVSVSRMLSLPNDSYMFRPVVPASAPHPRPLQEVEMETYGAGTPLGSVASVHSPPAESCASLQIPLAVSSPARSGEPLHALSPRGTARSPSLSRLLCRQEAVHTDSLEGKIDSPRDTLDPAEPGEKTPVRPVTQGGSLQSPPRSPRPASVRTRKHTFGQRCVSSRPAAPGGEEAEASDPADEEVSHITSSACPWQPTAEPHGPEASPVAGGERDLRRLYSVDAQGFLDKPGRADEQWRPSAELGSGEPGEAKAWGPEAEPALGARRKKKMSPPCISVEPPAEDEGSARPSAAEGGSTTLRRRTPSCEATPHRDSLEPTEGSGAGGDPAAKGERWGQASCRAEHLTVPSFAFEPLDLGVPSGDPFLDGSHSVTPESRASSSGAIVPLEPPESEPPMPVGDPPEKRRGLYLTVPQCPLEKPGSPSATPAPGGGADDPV

In the case of `CCN(CC)c1ccc(/C=C(/C#N)c2nc3cc(C)ccc3[nH]2)c(OC(C)C)c1`, the EC50 [1] is reported as 1.62 µM (active), the EC50 [2] is reported as 0.823 µM (active) and the IC50 [3] is reported as 0.557 µM (active). For the same compound, the EC50 [4] was > 60 µM (not active).
With `COc1ccc(-c2oc3ccc(N4CCOCC4)cc3c2/C=C/c2ccc(OC)c(OC)c2)cc1` the AC50 (Trypsin) was 2.77 µM (active).
For `N#CC1=C([S-])NC(=O)[C@H]([n+]2ccccc2)[C@H]1c1ccc(Cl)cc1`, the IC50 [5] was > 56.8 µM (not active) and the IC50 [6] was > 50 µM (inactive).
With `Cc1cc(Nc2cccc([N+](=O)[O-])c2)n2c(nc3ccccc32)c1C#N` the “Absolute IC50 (XBP1)” value (X-box-binding protein 1) was 10 µM, the AC50 [7] was 2.33 µM (active) and the EC50 [2] was 2.47 µM (active). The AC50 [8] was 2.15 µM (active), the AC50 [9] was 3.46 µM (active) and the EC50 [4] was > 60 µM (inconclusive). The AC50 [10] was 1.9 µM (active).
With `Cc1ccc(N2C(=O)c3cccc4c(N5CCN(C)CC5)ccc(c34)C2=O)c2cccnc12` the EC50 [1] was 0.658 µM (active), the EC50 [11] was 7.8 µM (active) and the EC50 [12] was 4.61 µM (active). The EC50 [13] was 7.84 µM (active).
With `COc1ccc(C=C2C=C(C(C)(C)C)C(=O)C(C(C)(C)C)=C2)cc1OC` the EC50 [14] was 5.35 µM (inconclusive), the EC50 (BJ [15]) was 6.69 µM (active) and the EC50 (BJ [16]) was 3.54 µM (inconclusive). The CC50 [17] was 12.8 µM (active), the EC50 (BJ [18]) was 0.571 µM (inconclusive) and the AC50 [7] was 1.88 µM (active). For the same compound, the EC50 (BJ [19]) was 2.93 µM (active), the EC50 [20] was > 32 µM (inactive) and the IC50 [3] was 3.16 µM (active).
With `Cc1cc(C)c(C#N)c(SCC(=O)c2ccc3c(c2)OCO3)n1` the IC50 [21] was > 100 µM (inactive) and the IC50 [22] was > 100 µM (inactive).
For `C=CCn1c(SCC(=O)c2ccc(O)c(O)c2)nnc1-c1cccc(Cl)c1`, the IC50 [21] was 6.62 µM (active), the IC50 [22] was 20.7 µM (active) and the IC50 [23] was 79.5 µM (active).
